Assay in all cases: cells
For experiment [1], the system named is MES SA (human uterine sarcoma). Particulars: 72 h, read-out: IC50 MES SA.
The subject of experiment [2] is MES SA DX (human uterine sarcoma cell line with marked multidrug resistance). Particulars: 72 h, read-out: IC50 MES SA DX.
In experiment [3] the test system is HEK 293T (human embryonic kidney cancer cell line). Particulars: 72 h, read-out: IC50 HEK 293T.

For 14 compounds, IC50 results are on record in patent publication US20210230178A1, “TRIOXACARCIN ANALOGS AND DIMERS AS POTENT ANTICANCER AGENTS” (William Marsh Rice University, priority 2017, published 2021).

pIC50: −log10 of the molar value. Some results are limits rather than exact numbers.

The term pIC50 denotes −log10 of the IC50, conventionally taken in molar units. Regarding `COc1c2c(c(O)c3c4c(c(C)cc13)[C@H]1O[C@]3(C5OCCO5)O[C@@H]1[C@](OC)(O4)[C@@]31CO1)C(=O)CCC2` [Trx9, (1S,2S,3aS,4R,13aS)-2-(1,3-Dioxolan-2-yl)-12-hydroxy-7,13a-dimethoxy-5-methyl-3a,4,8,9,10,13a-hexahydro-11H-spiro[2,4-epoxyfuro[3,2-b]naphtho[2,3-h]chromene-1,2′-oxiran]-11-one], the values for the negative-log IC50 (pIC50) in experiment [1], in experiment [2] and in experiment [3] were 8.33, 8.58 and 8.69, respectively.

On to `COc1c2c(c(O)c3c4c(c(C)cc13)C1O[C@@]3(C5OCCCO5)OC1C(O[C@H]1C[C@H](OC)[C@@H](NC(C)C)CO1)(O4)[C@@]31CO1)C(=O)CCC2` (stereo partly drawn) [Trx19, (1S,2R)-2-(1,3-dioxan-2-yl)-12-hydroxy-7-methoxy-5-methyl-11-oxo-3a,4,8,9,10,11-hexahydro-13aH-spiro[2,4-epoxyfuro[3,2-b]naphtho[2,3-h]chromene-1,2′-oxiran]-13a-yl 2,4-dideoxy-4-(iso-propylamino)-3-O-methyl-α-L-threo-pentopyranoside], for which the pIC50 in experiment [1] was 9.02; in experiment [2], 7.15; in experiment [3], 9.11.

Take `CO[C@@]12Oc3c4c(cc(C)c3[C@H]3O[C@](C5OCCCO5)(O[C@@H]31)[C@]21CO1)C(=O)c1cccc(OC(C)=O)c1C4=O` [Trx29, (1S,2S,3aS,4R,13aR)-2-(1,3-Dioxan-2-yl)-13a-methoxy-5-methyl-7,12-dioxo-3a,7,12,13a-tetrahydro-4H-spiro[2,4-epoxyfuro[3,2-b]naphtho[2,3-h]chromene-1,2′-oxiran]-11-yl acetate]: the pIC50 in experiment [1] is 8.84; in experiment [2] it was 8.98; in experiment [3], 8.73.

Turning to `Cc1cc2c(c3c1[C@H]1O[C@]4(C5OCCCO5)O[C@@H]1[C@@](O)(O3)[C@@]41CO1)C(=O)c1c(O)cccc1C2=O` [Trx30, (1S,2S,3aS,4R,13aR)-2-(1,3-Dioxan-2-yl)-11,13a-dihydroxy-5-methyl-3a,13a-dihydro-4H-spiro[2,4-epoxyfuro[3,2-b]naphtho[2,3-h]chromene-1,2′-oxirane]-7,12-dione], the values for the pIC50 in experiment [1], in experiment [2] and in experiment [3] were 7.38, 7.42 and 7.30, respectively.

On to `COCO[C@@]12Oc3c(c(C)cc4c(OC)c5c(c(O)c34)C(=O)CCC5)[C@H]3O[C@](C4OCCO4)(O[C@@H]31)[C@]21CO1` [Trx10, (1S,2S,3aS,4R,13aS)-2-(1,3-Dioxolan-2-yl)-12-hydroxy-7-methoxy-13a-(methoxymethoxy)-5-methyl-3a,4,8,9,10,13a-hexahydro-11H-spiro[2,4-epoxyfuro[3,2-b]naphtho[2,3-h]chromene-1,2′-oxiran]-11-one], for which the negative logarithm of the IC50 (pIC50) in experiment [1] was 8.41; in experiment [2], 8.66; in experiment [3] it was 8.82.

Regarding `COc1c2c(c(O)c3c4c(c(C)cc13)C1OC3(C5OCCCO5)OC1[C@@](O)(O4)[C@@]31CO1)C(=O)CCC2` (stereo partly drawn) [Trx12], the results for the pIC50 in experiment [1], in experiment [2] and in experiment [3] were 8.43, 8.24 and 8.61, respectively.

As to `C=CCO[C@@]12Oc3c(c(C)cc4c(OC)c5c(c(O)c34)C(=O)CCC5)[C@H]3O[C@](C4OCCCO4)(O[C@@H]31)[C@]21CO1` [Trx17, (1S,2S,3aS,4R,13aR)-13a-(Allyloxy)-2-(1,3-dioxan-2-yl)-12-hydroxy-7-methoxy-5-methyl-3a,4,8,9,10,13a-hexahydro-11H-spiro[2,4-epoxyfuro[3,2-b]naphtho[2,3-h]chromene-1,2′-oxiran]-11-one], the negative logarithm of the IC50 (pIC50) was 8.31 in experiment [1], 8.46 in experiment [2] and 8.56 in experiment [3].

With `CC(=O)Oc1cccc2c1C(=O)c1c(cc(C)c3c1O[C@]1(OC(C)=O)[C@H]4O[C@@](C5OCCCO5)(O[C@H]34)[C@]13CO3)C2=O` [Trx28, (1S,2S,3aS,4R,13aS)-2-(1,3-Dioxan-2-yl)-5-methyl-7,12-dioxo-3a,4,7,12-tetrahydro-13aH-spiro[2,4-epoxyfuro[3,2-b]naphtho[2,3-h]chromene-1,2′-oxirane]-11,13a-diyl diacetate], the pIC50 in experiment [1] is 7.96; in experiment [2], 7.93; in experiment [3], 7.95.

On to `C=CCOC(=O)N(C(C)C)[C@H]1CO[C@@H](O[C@@]23Oc4c(c(C)cc5c(OC)c6c(c(O)c45)C(=O)CCC6)C4OC(C5OCCCO5)(OC42)[C@]32CO2)C[C@@H]1OC` (stereo partly drawn) [Trx18, (1S,13aS)-2-(1,3-Dioxan-2-yl)-12-hydroxy-7-methoxy-5-methyl-11-oxo-3a,4,8,9,10,11-hexahydro-13aH-spiro[2,4-epoxyfuro[3,2-b]naphtho[2,3-h]chromene-1,2′-oxiran]-13a-yl 4-{[(allyloxy)carbonyl](isopropyl)amino}-2,4-dideoxy-3-O-methyl-α-L-threo-pentopyranoside], for which the results for the negative-log IC50 (pIC50) in experiment [1], in experiment [2] and in experiment [3] were under 6.00, under 6.00 and 7.40, respectively.

With `COc1c2c(c(O)c3c4c(c(C)cc13)C1O[C@@]3(C5OCCCO5)OC1[C@@](O[C@H]1C[C@H](O)[C@@](O)([C@@H](C)O)[C@H](C)O1)(O4)[C@@]31CO1)C(=O)CCC2` (stereo partly drawn) [Trx23, (1S,2R,13aS)-2-(1,3-dioxan-2-yl)-12-hydroxy-7-methoxy-5-methyl-11-oxo-3a,4,8,9,10,11-hexahydro-13aH-spiro[2,4-epoxyfuro[3,2-b]naphtho[2,3-h]chromene-1,2′-oxiran]-13a-yl 2,6-dideoxy-4-C-[(1R)-1-hydroxyethyl]-α-L-lyxo-hexopyranoside], the negative-log IC50 (pIC50) in experiment [1] is 8.23; in experiment [2] it was 7.47; in experiment [3] it was 8.56.

As to `COc1c2c(c(O)c3c4c(c(C)cc13)C1O[C@@]3(C5OCCCO5)OC1[C@@](O[C@H]1C[C@H](OC(C)=O)[C@@](O)(C(C)=O)[C@H](C)O1)(O4)[C@@]31CO1)C(=O)CCC2` (stereo partly drawn) [Trx20, (1S,2R,13aS)-2-(1,3-dioxan-2-yl)-12-hydroxy-7-methoxy-5-methyl-11-oxo-3a,4,8,9,10,11-hexahydro-13aH-spiro[2,4-epoxyfuro[3,2-b]naphtho[2,3-h]chromene-1,2′-oxiran]-13a-yl 4-C-acetyl-3-O-acetyl-2,6-dideoxy-α-L-lyxo-hexopyranoside], the negative logarithm of the IC50 (pIC50) is 8.29 in experiment [1], 7.28 in experiment [2] and 8.37 in experiment [3].

On to `COc1c2c(c(O)c3c4c(c(C)cc13)[C@H]1O[C@]3(C5OCCO5)O[C@@H]1[C@@](O)(O4)[C@@]31CO1)C(=O)CCC2` [Trx8, (1S,2S,3aS,4R,13aR)-2-(1,3-Dioxolan-2-yl)-12,13a-dihydroxy-7-methoxy-5-methyl-3a,4,8,9,10,13a-hexahydro-11H-spiro[2,4-epoxyfuro[3,2-b]naphtho[2,3-h]chromene-1,2′-oxiran]-11-one], for which the negative logarithm of the IC50 (pIC50) is 7.29 in experiment [1], 7.31 in experiment [2] and 7.51 in experiment [3].

`CC(=O)Oc1c(Cl)ccc2c1C(=O)c1c(cc(C)c3c1O[C@]1(OC(C)=O)[C@H]4O[C@@](C5OCCCO5)(O[C@H]34)[C@]13CO3)C2=O` [Trx32, (1S,2S,3aS,4R,13aS)-10-Chloro-2-(1,3-dioxan-2-yl)-5-methyl-7,12-dioxo-3a,4,7,12-tetrahydro-13aH-spiro[2,4-epoxyfuro[3,2-b]naphtho[2,3-h]chromene-1,2′-oxirane]-11,13a-diyl diacetate]: the pIC50 is 8.22 in experiment [1], 8.36 in experiment [2] and 8.17 in experiment [3].

Turning to `COc1c2c(c(O)c3c4c(c(C)cc13)C1OC3(C5OCCCO5)OC1[C@@](OC(C)=O)(O4)[C@@]31CO1)C(=O)CCC2` (stereo partly drawn) [Trx14], the pIC50 is 8.21 in experiment [1], 7.76 in experiment [2] and 8.16 in experiment [3].
